# Laboratory results reported in patent US20220242851A1, “CRYSTAL FORM AND SALT OF QUINAZOLINE COMPOUND AND PREPARATION METHOD THEREOF” (SHENZHEN JINRUI FOUNDATION BIOTECH CO., LTD, priority 2019, published 2022).
# What was measured:
# [1] = tested on: subcutaneous xenograft tumor of human gastric cancer NCI-N87 cells; assay: In vivo pharmacodynamics, NCI-N87 subcutaneous xenograft (Assay Example 3); set-up: species or system mouse
# Method: Purpose of the assay: in vivo efficacy of the assay compound disclosed herein on subcutaneous xenograft tumor of human gastric cancer NCI-N87 cells in a BALB/c nude mouse model was evaluated.
# Animals of the assay: female BALB/c nude mice, 6-8 weeks old, weighted 18-22 grams; supplier: Shanghai Ling Chang Biotechnology Co., Ltd.
# Human gastric cancer NCI-N87 cells were cultured in monolayer in vitro. The culture conditions were RPMI-1640 medium plus 10% fetal bovine serum, 100 U/mL penicillin, 100 U/mL streptomycin and 2 mM glutamine, 37° C., 5% CO2. The passaging was performed by the conventional digestion with trypsin-EDTA twice a week. When the cell saturation was 80%-90%, the cells were collected, counted and inoculated.
# 0.2 mL (10×10^6) of NCI-N87 cells (PBS+Matrigel, 1:1) were inoculated subcutaneously on the right back of each nude mouse. When the average tumor volume reached 158 mm^3, administration to each group was started.
# The assay compounds were formulated into 0.04 mg/mL and 0.08 mg/mL clear solution in the solvents of 10% NMP (N-methylpyrrolidone)+10% ethylene glycol stearate+80% water.
# The assay index was to investigate whether tumor growth is inhibited, delayed or cured. Tumor diameter was measured twice a week with a vernier caliper. The calculation formula of tumor volume was: V=0.5a×b^2, wherein a and b represent the long and short diameters of tumor, respectively.
# The antitumor efficacy of the compounds was evaluated by TGI (%) or tumor proliferation rate T/C (%). TGI (%) reflects tumor growth inhibition rate. […]
# Statistical analysis included mean and standard error of mean (SEM) of tumor volume at each time point in each group (See Table 13 for specific data). […] The comparison between groups was analyzed by T-test, and the comparison among three or more groups was analyzed by one-way ANOVA. […]
# [2] = target: T1, CYP2C19 (Homo sapiens, UniProt P33261); assay: Inhibition of CYP enzyme activity in human liver microsome, CYP2C19; assay type: in vitro ADME
# T1 construct: in the assay of CYP enzyme activity in human liver microsome; from tissue; host or cells: human liver microsome
# Source text: The results of the compound disclosed herein and the reference compound Poziotinib in the assay of CYP enzyme activity in human liver microsome were shown in the following table (Table 17).
# [3] = target: HER1(ErbB1) (Homo sapiens, UniProt P00533); assay: In vitro enzyme activity, HER1 (radiometric, Eurofins); assay type: biochemical; details: conclusion
# Method: The purpose of this assay is to detect the in vitro inhibitory activity of compounds on HER1(ErbB1), HER2(ErbB2), and HER4(ErbB4). The enzymes used in this assay are human ErbB 1, ErbB2 and ErbB4. Eurofins Pharma Discovery Service provided the method for activity detection. Steps and method of the assay (96-well plate): A buffer solution of the assay compounds in a dilution of 5-fold (5 μL), polypeptide substrate poly(Glu, Tyr) (4:1) (2.5 μL), ErbB (4-20 ng, 2.5 μL), MnCl2 (50 mM, 1.25 μL), dH2O (3.75 μL), and [γ-^33P]ATP (10 μL) were added, and incubated at 30° C. for 10 minutes. The reaction was terminated by adding 3% phosphoric acid. 10 μL of the sample was taken and transferred to Filtermate A. The filter disc was washed 3 times with 75 mM phosphoric acid and once with methanol. The filter disc was transferred to a sealed plastic bag and the scintillation mixture (4 mL) was added. The intensity of the emitted photon was detected by a scintillation luminescence counter. The CPM (times/min) of the enzyme sample was compared with the CPM of the internal control sample. The level of photon intensity reflected the degree of the tyrosine kinase activity.
# [4] = tested on: NCI-N87 cell; assay: Inhibition of cell proliferation, Cell-Titer-Glo, NCI-N87; assay type: cell-based, human; details: conclusion
# Source text: Purpose of the assay: the inhibitory activity of the assay compounds on cell proliferation was detected. Principle of the assay: the luciferase in a Cell-Titer-Glo reagent produces oxidized luciferin with luciferin, oxygen and ATP as reaction substrates, and releases energy in the form of light. Since the luciferase reaction requires ATP, the total amount of light generated by the reaction is proportional to the total amount of ATP that reflects cell viability. Cell line: NCI-N87 cell line (ATCC-CRL-5822), BT-474 cell line (ATCC-HTB-20), OE21 (ECACC-96062201) Cell culture medium: […] L-[…]×, Gibco#25030-081; penicillin-streptomycin Hyclone# SV30010) Cell Titer-Glo® cell viability assay kit with luminescence (Promega #G7573) 384-well cell culture plate (Greiner # 781090) Compound plate (LABCYTE # LP-0200) CO2 incubator (Thermo#371) Vi-cell cell counter (Beckman Coulter) According to the schematic diagram of the cell seed plate, cells were seeded in a 384- or 96-well plate at a density of 1000 cells per well and 25 μL per well, and 25 μL of PBS was added to the wells near edge of the place where no cells were seeded. (1) The stock solution of the compounds has a concentration of 10 mM, and the compounds were diluted with DMSO to an initial concentration of 4 mM. […] After 10 minutes, the plate was read on PerkinElmer Envision, and the […] reading time was set to 0.2 second.
# HER1(ErbB1), sequence (P00533 25-1210): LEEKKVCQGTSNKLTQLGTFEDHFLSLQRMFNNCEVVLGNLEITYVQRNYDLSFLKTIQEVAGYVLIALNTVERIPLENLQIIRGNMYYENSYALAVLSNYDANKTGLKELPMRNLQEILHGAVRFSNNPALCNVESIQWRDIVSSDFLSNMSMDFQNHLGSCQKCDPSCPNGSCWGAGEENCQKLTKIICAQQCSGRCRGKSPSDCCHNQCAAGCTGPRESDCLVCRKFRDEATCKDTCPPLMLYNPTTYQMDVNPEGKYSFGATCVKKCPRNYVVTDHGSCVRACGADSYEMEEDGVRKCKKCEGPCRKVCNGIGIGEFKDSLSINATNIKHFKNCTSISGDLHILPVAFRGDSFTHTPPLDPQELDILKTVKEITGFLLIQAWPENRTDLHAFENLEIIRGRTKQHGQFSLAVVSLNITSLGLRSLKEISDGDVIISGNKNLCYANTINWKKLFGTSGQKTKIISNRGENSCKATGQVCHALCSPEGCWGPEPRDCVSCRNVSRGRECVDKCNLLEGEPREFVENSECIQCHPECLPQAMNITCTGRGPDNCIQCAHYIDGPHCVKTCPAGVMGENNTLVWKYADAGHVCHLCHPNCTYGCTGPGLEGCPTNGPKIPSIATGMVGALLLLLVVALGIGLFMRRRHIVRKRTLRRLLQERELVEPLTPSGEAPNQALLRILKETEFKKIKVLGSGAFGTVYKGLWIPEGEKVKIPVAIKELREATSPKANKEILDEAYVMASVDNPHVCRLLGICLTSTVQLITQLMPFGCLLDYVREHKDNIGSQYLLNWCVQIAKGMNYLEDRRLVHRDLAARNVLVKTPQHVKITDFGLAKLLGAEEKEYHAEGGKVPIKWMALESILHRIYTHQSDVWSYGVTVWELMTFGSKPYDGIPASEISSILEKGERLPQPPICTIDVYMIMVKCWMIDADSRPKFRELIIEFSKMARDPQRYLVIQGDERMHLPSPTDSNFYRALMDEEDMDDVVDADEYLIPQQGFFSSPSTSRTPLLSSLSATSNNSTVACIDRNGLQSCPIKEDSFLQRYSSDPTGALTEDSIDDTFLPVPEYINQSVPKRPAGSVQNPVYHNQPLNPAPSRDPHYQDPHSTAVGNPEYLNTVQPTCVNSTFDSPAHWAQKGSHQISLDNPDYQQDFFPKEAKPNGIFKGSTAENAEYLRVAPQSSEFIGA
# T1 sequence (P33261 whole entry): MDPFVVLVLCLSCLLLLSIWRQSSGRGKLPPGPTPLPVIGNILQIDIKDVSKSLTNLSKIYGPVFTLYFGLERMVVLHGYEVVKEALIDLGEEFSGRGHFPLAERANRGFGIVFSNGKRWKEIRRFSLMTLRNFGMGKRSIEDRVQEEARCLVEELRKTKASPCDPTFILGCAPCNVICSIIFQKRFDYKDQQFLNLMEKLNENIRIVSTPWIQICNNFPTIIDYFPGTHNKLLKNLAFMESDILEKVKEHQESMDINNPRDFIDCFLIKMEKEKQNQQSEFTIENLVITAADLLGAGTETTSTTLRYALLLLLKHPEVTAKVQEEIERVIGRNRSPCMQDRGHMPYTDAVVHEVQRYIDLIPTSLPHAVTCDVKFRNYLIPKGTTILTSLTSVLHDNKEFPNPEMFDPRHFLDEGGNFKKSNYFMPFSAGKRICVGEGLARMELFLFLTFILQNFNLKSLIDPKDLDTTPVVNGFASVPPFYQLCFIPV
compound,measurement,setting,value
C=CC(=O)N1[C@@H]2CC[C@H]1C[C@H](Nc1cc3c(Nc4ccc(Cl)c(Cl)c4F)ncnc3cc1OC)C2 [Compound of formula (I)],tumor inhibitory effect (in words),"[1]; 0.8 mg/kg, compared with the vehicle control group",significant tumor inhibitory effect
same,drug efficacy compared with Poziotinib (in words),[1]; low-dose group (0.4 mg/kg),comparable to or better than the reference compound Poziotinib
same,inhibitory activity on CYP2C19 compared with Poziotinib (in words),[2],comparable to that of the reference compound Poziotinib
same,inhibitory activity on HER1 (in words),[3],significant inhibitory activity
same,inhibitory activity on the proliferation of NCI-N87 cells (in words),[4],significant inhibitory activity
